The record followed here is US11124497B1, “Inhibitors of cysteine proteases and methods of use thereof” (priority 2020, dated 2021).

One may read the EC50 as the concentration needed to bring the measured effect to its halfway point.

Where only a bound is given, the exact number is not on record here.

For one assay, the system named is HCoV 229E. Nature of the assay: HCoV 229E cytopathic effect (CPE) assay. The assay is classed as cell-based, Human Coronavirus (HCov) 229E. Conditions: CellTiter Glo, read-out: 229 ECPE EC50. The protocol:
Compounds were assayed using standard methods against multiple coronaviral strains, including HCoV 229E and OC43 strains. The antiviral activity of compounds was calculated based on the protection of the virus-induced CPE at each concentration normalized by the virus control.
Cytopathic effect (CPE) was measured by CellTiter Glo following the manufacturer's manual. The antiviral activity of compounds was calculated based on the protection of the virus-induced CPE at each concentration normalized by the virus control.
(Protection from cytopathic effect is a common read-out in antiviral testing.)
On to `COc1cccc2[nH]c(C(=O)N[C@@H](CC(C)C)C(=O)N[C@@H](C[C@@H]3CCNC3=O)C(O)C#N)cc12` (single isomer, unassigned) [135 (Isomer 2)], for which the EC50 is less than 22 µM.

With `CC(C)C[C@H](NC(=O)c1nc2cccc(Cl)c2[nH]1)C(=O)N[C@H](C#N)C[C@@H]1CCNC1=O` [Compound 127], the concentration giving a half-maximal response (EC50) was in the range of 2 to 10 µM. Still for that read-out and setting: as for `CC(C)C[C@H](NC(=O)c1nc2cccc(Cl)c2[nH]1)C(=O)N[C@H](C#N)C[C@@H]1CCNC1=O` [Compound 133], the figure is less than 22 µM.

The same assay, now with this note: unidentified human coronavirus, CellTiter Glo, read-out: 229 ECPE EC50.
With `COc1cccc2[nH]c(C(=O)N[C@@H](CC(C)C)C(=O)N[C@@H](C[C@@H]3CCNC3=O)C(O)C#N)cc12` (single isomer, unassigned) [134 (Isomer 1)], the EC50 is less than 22 µM. On the same count and under the same terms, as for `COc1cccc2[nH]c(C(=O)N[C@@H](CC(C)C)C(=O)N[C@@H](C[C@@H]3CCNC3=O)C(C#N)NC(C)(C)C)cc12` (single isomer, unassigned) [323 (Isomer 1)], the figure is less than 22 µM; as for `COc1cccc2[nH]c(C(=O)N3CC4(CCCCC4)CC3C(=O)N[C@H](C#N)C[C@@H]3CCNC3=O)cc12` (single isomer, unassigned) [389A (Isomer 1)], less than 22 µM. As for `COc1cccc2[nH]c(C(=O)N[C@@H](CC(C)C)C(=O)N[C@@H](C[C@@H]3CCNC3=O)C(C#N)NCc3ccccc3)cc12` (single isomer, unassigned) [507 (Isomer 1.1)], the concentration giving a half-maximal response (EC50) is less than 22 µM. Still for that read-out and setting: as for `CCNC(C#N)[C@H](C[C@@H]1CCNC1=O)NC(=O)[C@H](CC(C)C)NC(=O)c1cc2c(OC)cccc2[nH]1` (single isomer, unassigned) [511 (Isomer 1)], the figure is less than 22 µM. With `COc1cccc2[nH]c(C(=O)N3CC4(CCCCC4)CC3C(=O)N[C@H](C#N)C[C@@H]3CCCNC3=O)cc12` (single isomer, unassigned) [681 (Isomer 1)], the half-maximal effective concentration (EC50) is less than 22 µM.

In the case of `N#C[C@H](C[C@@H]1CCCNC1=O)NC(=O)C1CC2(CCC2)CN1C(=O)c1cc2cccc(Cl)c2[nH]1` (single isomer, unassigned) [729 (Isomer 1)], the 50% effective concentration (EC50) is less than 22 µM. Consider `CC(C)C[C@H](NC(=O)c1nc2ccccc2[nH]1)C(=O)N[C@H](C#N)C[C@@H]1CCNC1=O` [Compound 103, N-[(1S)-1-[[(1S)-1-cyano-2-[(3S)-2-oxopyrrolidin-3-yl]ethyl]carbamoyl]-3-methyl-butyl]-1H-benzimidazole-2-carboxamide], for which the EC50 was less than 22 µM.

As for `CC(C)C[C@H](NC(=O)c1nc2ncccc2[nH]1)C(=O)N[C@H](C#N)C[C@@H]1CCNC1=O` [Compound 131, N-[(1S)-1-[[(1S)-1-cyano-2-[(3S)-2-oxopyrrolidin-3-yl]ethyl]carbamoyl]-3-methyl-butyl]-1H-imidazo[4,5-b]pyridine-2-carboxamide], the EC50 lay within 2 to 10 µM. On the same count and under the same terms, the value for `COc1cccc2[nH]c(C(=O)NC(CC(C)C)C(=O)NC(CC3CCNC3=O)C(O)C#N)cc12` (stereo not drawn) [Compound 134] was less than 22 µM. Regarding `COc1cccc2[nH]c(C(=O)N[C@@H](CC(C)C)C(=O)N[C@H](/C=C/S(C)(=O)=O)C[C@@H]3CCNC3=O)cc12` [Compound 136, 4-methoxy-N-[(1S)-3-methyl-1-[[(E,1S)-3-methylsulfonyl-1-[[(3S)-2-oxopyrrolidin-3-yl]methyl]allyl]carbamoyl]butyl]-1H-indole-2-carboxamide], the EC50 is more than 30 µM. For the compound `COc1cccc2[nH]c(C(=O)N3C[C@H](c4ccccc4)C[C@H]3C(=O)N[C@H](C#N)C[C@@H]3CCNC3=O)cc12` [Compound 171], the EC50 was less than 22 µM. Same read-out and setting: the value for `COc1cccc2[nH]c(C(=O)N[C@@H](CC3CCCCC3)C(=O)N[C@H](C#N)C[C@@H]3CCNC3=O)cc12` [Compound 185, N-[(1S)-2-[[(1S)-1-cyano-2-[(3S)-2-oxopyrrolidin-3-yl]ethyl]amino]-1-(cyclohexylmethyl)-2-oxo-ethyl]-4-methoxy-1H-indole-2-carboxamide] was less than 22 µM; that for `COc1cccc2[nH]c(C(=O)N3C[C@H]4C([C@H]3C(=O)N[C@H](C#N)C[C@@H]3CCNC3=O)C4(C)C)cc12` (stereo partly drawn) [Compound 197, (2S,5S)—N-[(1S)-1-cyano-2-[(3S)-2-oxopyrrolidin-3-yl]ethyl]-3-(4-methoxy-1H-indole-2-carbonyl)-6,6-dimethyl-3-azabicyclo[3.1.0]hexane-2-carboxamide] was less than 22 µM. On the same count and under the same terms, as for `COc1cccc2[nH]c(C(=O)N[C@@H](CC3CC3)C(=O)N[C@H](C#N)C[C@@H]3CCNC3=O)cc12` [Compound 205, N—((S)-1-(((S)-1-cyano-2-((S)-2-oxopyrrolidin-3-yl)ethyl)amino)-3-cyclopropyl-1-oxopropan-2-yl)-4-methoxy-1H-indole-2-carboxamide], the figure is less than 22 µM. On to `COc1cccc2[nH]c(C(=O)N[C@@H](CC(C)C)C(=O)N[C@@H](C[C@@H]3CCNC3=O)C(C#N)N[C@@H](C)c3ccccc3)cc12` (stereo partly drawn) [Compound 329], for which the half-maximal effective concentration (EC50) is less than 22 µM. Regarding `COc1cccc2[nH]c(C(=O)N3C[C@H](c4ccccc4)CC3C(=O)N[C@H](C=O)C[C@@H]3CCNC3=O)cc12` (stereo partly drawn) [Compound 344A], the EC50 is less than 22 µM. Turning to `COc1cccc2[nH]c(C(=O)N[C@@H](CC(C)C)C(=O)N[C@@H](C[C@@H]3CCNC3=O)C(N)C#N)cc12` (stereo partly drawn) [Compound 344C, N-[(1S)-1-[[(1S)-2-amino-2-cyano-1-[[(3S)-2-oxopyrrolidin-3-yl]methyl]ethyl]carbamoyl]-3-methyl-butyl]-4-methoxy-1H-indole-2-carboxamide], the EC50 is less than 22 µM. On the same count and under the same terms, the value for `COc1cccc2[nH]c(C(=O)N3C[C@H](c4ccccc4)C[C@H]3C(=O)N[C@@H](C[C@@H]3CCNC3=O)C(O)C#N)cc12` (stereo partly drawn) [Compound 345] was less than 22 µM; that for `CC(C)C[C@H](NC(=O)c1cc2c(OC(F)(F)F)cccc2[nH]1)C(=O)N[C@H](C#N)C[C@@H]1CCNC1=O` [Compound 361] was less than 22 µM. As to `CC(C)C[C@H](NC(=O)c1nc2c(OC(F)(F)F)cccc2[nH]1)C(=O)N[C@H](C#N)C[C@@H]1CCNC1=O` [Compound 363], the EC50 is less than 22 µM. Same read-out and setting: the value for `N#C[C@H](C[C@@H]1CCNC1=O)NC(=O)[C@H](CC1CC1)NC(=O)c1cc2c(C3CC3)cccc2[nH]1` [Compound 375A] was less than 22 µM; that for `CCOc1cccc2[nH]c(C(=O)N[C@@H](CC(C)C)C(=O)N[C@H](C#N)C[C@@H]3CCNC3=O)cc12` [Compound 377] was less than 22 µM; that for `COc1cccc2[nH]c(C(=O)N3C[C@@H]4CCC[C@@H]4[C@H]3C(=O)N[C@H](C#N)C[C@@H]3CCNC3=O)cc12` [Compound 393] was less than 22 µM. Same read-out and setting: the value for `COc1cccc2[nH]c(C(=O)N3CC4(CC4)C[C@H]3C(=O)N[C@H](C#N)C[C@@H]3CCNC3=O)cc12` [Compound 397] was less than 22 µM.

As for `COc1cccc2[nH]c(C(=O)N3CC4(CCCC4)C[C@H]3C(=O)N[C@H](C#N)C[C@@H]3CCNC3=O)cc12` [Compound 401, (S)—N—((S)-1-cyano-2-((S)-2-oxopyrrolidin-3-yl)ethyl)-2-(4-methoxy-1H-indole-2-carbonyl)-2-azaspiro[4.4]nonane-3-carboxamide], the half-maximal effective concentration (EC50) was less than 22 µM. The same measure, in the same setting: the value for `COc1cccc2[nH]c(C(=O)N[C@@H](CC(C)(C)C)C(=O)N[C@H](C#N)C[C@@H]3CCNC3=O)cc12` [Compound 405, N-[(1S)-1-[[(1S)-1-cyano-2-[(3S)-2-oxopyrrolidin-3-yl]ethyl]carbamoyl]-3,3-dimethyl-butyl]-4-methoxy-1H-indole-2-carboxamide] was less than 22 µM; that for `COc1cccc2[nH]c(C(=O)N[C@@H](CC(C)C)C(=O)NC(C#N)c3cccnc3)cc12` (stereo partly drawn) [Compound 433] was 2 to 10 µM; that for `COc1cccc2[nH]c(C(=O)N[C@@H](CC3CC3)C(=O)N[C@H](C#N)C[C@@H]3CCCNC3=O)cc12` [Compound 491, N-[(1S)-2-[[(1S)-1-cyano-2-[(3S)-2-oxo-3-piperidyl]ethyl]amino]-1-(cyclopropylmethyl)-2-oxo-ethyl]-4-methoxy-1H-indole-2-carboxamide] was less than 22 µM. As for `CCNC(C#N)[C@H](C[C@@H]1CCNC1=O)NC(=O)[C@H](CC(C)C)NC(=O)c1cc2c(OC)cccc2[nH]1` (stereo partly drawn) [Compound 511, N-[(1S)-1-[[(1S)-2-cyano-2-(ethylamino)-1-[[(3S)-2-oxopyrrolidin-3-yl]methyl]ethyl]carbamoyl]-3-methyl-butyl]-4-methoxy-1H-indole-2-carboxamide], the 50% effective concentration (EC50) is less than 22 µM. As to `COc1cccc2[nH]c(C(=O)N3C[C@H](SC)C[C@H]3C(=O)N[C@H](C#N)C[C@@H]3CCNC3=O)cc12` [Compound 551], the half-maximal effective concentration (EC50) is 2 to 10 µM. `N#C[C@H](C[C@@H]1CCCNC1=O)NC(=O)[C@H](CC1CC1)NC(=O)c1cc2ccc(Cl)cc2[nH]1` [Compound 635, 6-Chloro-N-[(1S)-2-[[(1S)-1-cyano-2-[(3S)-2-oxo-3-piperidyl]ethyl]amino]-1-(cyclopropylmethyl)-2-oxo-ethyl]-1H-indole-2-carboxamide]: the EC50 was less than 22 µM. For the compound `N#C[C@H](C[C@@H]1CCCNC1=O)NC(=O)[C@H](CC1CC1)NC(=O)c1nc2c(Cl)ccc(Cl)c2[nH]1` [Compound 637, 4,7-dichloro-N-[(1S)-2-[[(1S)-1-cyano-2-[(3S)-2-oxo-3-piperidyl]ethyl]amino]-1-(cyclopropylmethyl)-2-oxo-ethyl]-1H-benzimidazole-2-carboxamide], the concentration for a half-maximal effect (EC50) is less than 22 µM. On the same count and under the same terms, the value for `N#C[C@H](C[C@@H]1CCNC1=O)NC(=O)[C@H](CC1CC1)NC(=O)c1cc2c([nH]1)CCCC2` [Compound 711] was less than 22 µM. Still for that read-out and setting: as for `N#C[C@H](C[C@@H]1CCCNC1=O)NC(=O)[C@H](CC1CC1)NC(=O)c1cc2c(Cl)nccc2[nH]1` [Compound 715], the figure is less than 22 µM; as for `N#C[C@H](C[C@@H]1CCCNC1=O)NC(=O)[C@H](CC1CC1)NC(=O)c1cc2cc(Cl)ncc2[nH]1` [Compound 717], less than 22 µM.
